Among the data in patent US6593326B1, “2,4-diamino pyrimidine compounds having anti-cell proliferative activity” (AstraZeneca AB, priority 1998, dated 2003) are IC50 values, retold here.

In assay [1] the target is T1, CDK4/Cyclin D1 (Homo sapiens, UniProt P11802).
T1 construct: made in house; host or cells: Sf21 insect cells (baculovirus co-infection, pVL1393); the substrate was made in E. coli BL21 (DE3) pLysS
The assay is described as follows: CDK4 Inhibition Assay (Scintillation Proximity Assay, GST-Retinoblastoma substrate). The format is biochemical. As to conditions: in vitro kinase assay; read-out: CDK4 inhibitory activity IC50. How it is done: The compounds were tested in an in vitro kinase assay in 96 well format using Scintillation Proximity Assay (SPA-obtained from Amersham) for measuring incorporation of [γ-33-P]-Adenosine Triphosphate into a test substrate (GST-Retinoblastoma). In each well was placed the compound to be tested (diluted in DMSO and water to correct concentrations) and in control wells either p16 as an inhibitor control or DMSO as a positive control.
Approximately 0.5 μl of CDK4/Cyclin D1 partially-purified enzyme (amount dependent on enzyme activity) diluted in 25 μl incubation buffer was added to each well then 20 μl of GST-Rb/ATP/ATP33 mixture (containing 0.5 μg GST-Rb and 0.2 μM ATP and 0.14 μCi [γ-33-P]-Adenosine Triphosphate), and the resulting mixture shaken gently, then incubated at room temperature for 60 minutes. […]
The plates were sealed with Topseal-S plate sealers, left for two hours then spun at 2500 rpm, 1124×g., for 5 minutes. The plates were read on a Topcount for 30 seconds per well. […]
E.coli paste was resuspended in 10 ml/g of NETN buffer (50 mM Tris pH 7.5, 120 mM NaCl, 1 mM EDTA, 0.5% v/v NP-40, 1 mM PMSF, 1 ug/ml leupeptin, 1 ug/ml aprotinin and 1 ug/ml pepstatin) and sonicated for 2×45 seconds per 100 ml homogenate. […] The final product was analysed by Sodium Dodeca Sulfate (SDS) PAGE (Polyacrylamide gel) using 8-16% Tris-Glycine gels (Novex, San Diego, USA). […]

The target in assay [2] is T2, human Focal Adhesion Kinase (FAK) (Homo sapiens, UniProt Q05397).
T2 construct: FAK (full length human cDNA described by Andre et al); made in house; host or cells: Sf21 insect cells (baculovirus, pFastbac 1)
T2 sequence (Q05397 whole entry): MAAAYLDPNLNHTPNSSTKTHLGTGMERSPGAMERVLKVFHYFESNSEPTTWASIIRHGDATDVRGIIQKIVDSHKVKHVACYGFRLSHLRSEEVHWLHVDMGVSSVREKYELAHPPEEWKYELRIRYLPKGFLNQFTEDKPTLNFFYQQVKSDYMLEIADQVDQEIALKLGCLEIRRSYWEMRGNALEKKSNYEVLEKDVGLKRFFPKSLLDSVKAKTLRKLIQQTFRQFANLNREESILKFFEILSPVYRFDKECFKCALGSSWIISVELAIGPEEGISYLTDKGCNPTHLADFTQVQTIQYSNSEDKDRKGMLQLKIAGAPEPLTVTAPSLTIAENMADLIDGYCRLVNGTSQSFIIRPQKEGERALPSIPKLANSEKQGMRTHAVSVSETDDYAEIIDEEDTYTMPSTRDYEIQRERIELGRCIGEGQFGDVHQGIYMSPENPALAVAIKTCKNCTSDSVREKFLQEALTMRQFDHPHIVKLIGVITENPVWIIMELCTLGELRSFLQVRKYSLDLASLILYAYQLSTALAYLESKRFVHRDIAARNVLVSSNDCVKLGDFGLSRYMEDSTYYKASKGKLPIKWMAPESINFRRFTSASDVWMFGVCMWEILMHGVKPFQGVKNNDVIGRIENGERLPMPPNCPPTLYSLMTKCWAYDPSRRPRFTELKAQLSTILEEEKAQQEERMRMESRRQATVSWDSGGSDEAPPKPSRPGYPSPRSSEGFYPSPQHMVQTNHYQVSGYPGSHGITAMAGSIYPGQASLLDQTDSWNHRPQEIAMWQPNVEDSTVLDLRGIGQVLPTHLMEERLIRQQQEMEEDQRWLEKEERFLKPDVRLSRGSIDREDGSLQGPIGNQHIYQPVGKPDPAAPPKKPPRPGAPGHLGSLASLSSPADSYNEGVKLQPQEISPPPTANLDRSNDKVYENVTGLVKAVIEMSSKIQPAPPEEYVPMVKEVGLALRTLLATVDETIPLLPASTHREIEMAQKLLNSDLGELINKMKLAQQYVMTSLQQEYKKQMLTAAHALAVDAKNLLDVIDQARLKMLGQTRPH
The assay is described as follows: FAK3 Kinase Inhibition Assay. The format is biochemical. As to conditions: in vitro enzyme assay; read-out: FAK inhibitory activity IC50. The text has this: FAK3 Kinase Inhibition Assay
This assay determines the ability of a test compound to inhibit tyrosine kinase activity of human Focal Adhesion Kinase (FAK).
DNA encoding FAK is obtained by total gene synthesis (Edwards M, International Biotechnology Lab 5(3), 19-25, 1987) or by cloning. These are then expressed in a suitable expression system to obtain polypeptide with tyrosine kinase activity.
Active FAK protein has been previously expressed in a baculovirus system using a similar N-terminal 6-histidine tag (Protein Expression And Purification, 1996, 7: 12-18). The human FAK cDNA was cloned into the baculovirus transplacement vector, pFastbac 1 (Life Technologies), and the recombinant construct was co-transfected into insect cells (for example Spodoptera frugiperda 21(Sf21)) with viral DNA to prepare recombinant baculovirus (details of the methods for the assembly of recombinant DNA molecules and the preparation and use of recombinant baculovirus can be found in standard texts for example Sambrook et al, 1989, Molecular cloning—A Laboratory Manual, 2nd edition, Cold Spring Harbour Laboratory Press and O'Reilly et al, 1992, Baculovirus Expression Vectors—A Laboratory Manual, W. H. Freeman and Co, New York. Details specific to the use of the pFastbac (‘Bac to Bac’) system are provided in Anderson et al., 1995, FOCUS (Life Technologies Bulletin Magazine), 17, p53.) […]

What is called IC50 is the midpoint of a concentration-inhibition curve.

T1 sequence (P11802 whole entry): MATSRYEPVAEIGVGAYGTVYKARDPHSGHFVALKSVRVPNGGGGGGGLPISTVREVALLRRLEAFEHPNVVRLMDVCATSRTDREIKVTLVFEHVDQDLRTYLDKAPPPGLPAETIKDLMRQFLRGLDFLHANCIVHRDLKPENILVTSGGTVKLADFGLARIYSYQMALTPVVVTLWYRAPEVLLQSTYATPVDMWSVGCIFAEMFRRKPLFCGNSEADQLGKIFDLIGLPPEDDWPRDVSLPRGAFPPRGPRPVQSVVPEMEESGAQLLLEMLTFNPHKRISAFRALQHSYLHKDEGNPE
T1 sequence (P24385 whole entry partner): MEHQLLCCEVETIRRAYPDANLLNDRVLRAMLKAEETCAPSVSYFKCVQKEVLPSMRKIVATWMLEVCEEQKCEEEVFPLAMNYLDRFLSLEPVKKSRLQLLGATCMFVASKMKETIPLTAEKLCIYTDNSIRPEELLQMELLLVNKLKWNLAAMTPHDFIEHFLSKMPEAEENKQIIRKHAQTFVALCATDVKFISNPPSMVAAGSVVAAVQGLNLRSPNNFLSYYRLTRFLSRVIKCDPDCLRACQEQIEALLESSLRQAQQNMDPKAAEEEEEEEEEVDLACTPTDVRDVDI

Consider `Cc1ccc(F)c(Nc2nc(Nc3ccc(OCC(O)CN(C)C)cc3)ncc2Br)c1` (stereo not shown) [Example 5, 2-{4-[3-(N,N-Dimethyl)amino-2-hydroxy-propoxy]anilino}-4-(2-fluoro-5-methylanilino)-5-bromo-pyrimidine], for which, in assay [1], the IC50 stood at 0.02 µM.

Regarding `CN(C)CC(O)COc1ccc(Nc2ncc(Br)c(Nc3ccccc3)n2)cc1` (racemic) [Example 3, 4-anilino-5-bromo-2-{4-[3-(N,N-dimethyl)amino-2-hydroxypropoxy]anilino}pyrimidine], in assay [1], the 50% inhibitory concentration (IC50) was found to be 0.07 µM.

Take `CC(C)NCCCNc1ccc(Nc2ncc(Br)c(Nc3ccccn3)n2)cc1` [Example 220]: the half-maximal inhibitory concentration (IC50) in assay [2] was 0.07 µM.

`CN(C)CC(O)COc1ccc(Nc2ncc([N+](=O)[O-])c(Nc3ccccc3F)n2)cc1` (stereo not shown) [Example 6]: in assay [2], the IC50 was determined as 0.032 µM.
